In patent publication US10513623B2, “Aqueous ink, ink cartridge and image recording method” (CANON KABUSHIKI KAISHA, priority 2017, dated 2019):

Tests used:
[1] = Aqueous solubility of solvent A at 20° C.; assay type: physicochemical; settings: for Aqueous solubility: 20° C.
[2] = Log distribution coefficient of solvent A; assay type: physicochemical

Compound | Aqueous solubility [1] | Log distribution coefficient [2] | aqueous solubility of the solvent A ([1]; solvent A of ink 1, rounded value)
OCCCc1ccccc1 [3-Phenyl-1-propanol] | 0.568 % by mass | 1.88 | 
CC(O)Cc1ccccc1 (centres unmarked) [1-Phenyl-2-propanol] | 0.58 % by mass | 1.71 | 
CC(O)COc1ccccc1 (centres unmarked) [1-Phenoxy-2-propanol] | 1.1 % by mass | 1.51 | 
OCCc1ccccc1 [Phenethyl alcohol] | 2.2 % by mass |  | 
OCc1ccccc1 [Benzyl alcohol] | 4.29 % by mass | 1.03 | 
OCCOc1ccccc1 [2-Phenoxyethanol] | 2.67 % by mass | 1.16 | 2.7%
OCCCCc1ccccc1 [4-Phenyl-1-butanol] | 0.1 % by mass | 2.4 | 
